Patent publication US20180313858A1, “QUANTIFICATION OF DRUGS IN BIOLOGICAL SAMPLES” (Indivior UK Limited, priority 2015, published 2018)
Marks after values point to notes of the source that are not given here.

Legend:
[1] = human, in vivo
clinical = conditions: human, in vivo

With `C=CCN1CC[C@]23c4c5ccc(O)c4O[C@H]2C(=O)CC[C@@]3(O)[C@H]1C5` [naloxone] the plasma concentration [1] was 0.068 ng/mL, the “t1/2 (apparent terminal half-life)” value [1] was 2.21 (61.1)^f h and the “time for which analyte was quantifiable in plasma” value [1] was 36 h. The AUC(0-inf) (clinical) was 0.0772 ng·h/mL, the AUC(0-t) (clinical) was 0.0681 ng·h/mL and the Cmax (clinical) was 0.0266 ng/mL. For the same molecule, the Tmax (clinical) was 45 min.
